The values below are quoted from earlier work in patent US12611419B2, “Liposomal composition for use in a method of treating Parkinson's disease” (INNOMEDICA HOLDING AG, priority 2017, dated 2026).

One series relates to B4galnt1 transgenic mice. Conditions: mice deficient in GM1 family gangliosides.
Another series deals with spinal cord injuries. Conditions: patients.
Series [1] has as its system rodent model of Parkinson's disease. The settings on record: in vivo.

For the molecule monosialotetrahexosylganglioside [GM1], in the series with PD patients (10 PD patients, 1000 mg i.v. then 200 mg/day subcutaneous, 18 weeks), the “safety, open pilot study” value is “safe and well tolerated”. In addition, in the series with PD patients (10 PD patients, 18 weeks), the “anti-GM1 antibody titres, open pilot study” value is recorded as “none of the patients developed elevated anti-GM1 antibody titres”. For the same molecule, the “PET (11)C-methylphenidate binding” value with PD patients (GM1-treated groups, baseline, week 24, 1-2 years later) is recorded as “significant slowing of binding loss in several striatal regions”. Moreover, in the series on PD patients (delayed start study), the “safety of long-term administration” value was “safe and well tolerated”. In the series with PD patients (delayed start study, week 24), the “UPDRS motor scores, early-start group” value is recorded as “significant improvement in UPDRS motor scores”. In addition, the “UPDRS motor scores, five-year open extension” value in the series on PD patients (end of 5 years of GM1 use, off period) is listed as “lower UPDRS motor scores”. The “UPDRS motor scores vs placebo” value in the series on PD patients (randomized placebo-controlled study, 45 individuals, 16 weeks) is “significant differences between groups”. The “adverse events at the injection site” value in the series with PD patients (subcutaneous administration) is “pain, irritation of the skin site and severe haematoma at the injection site occur”. Moreover, in the series with B4galnt1 transgenic mice, the “pathological CNS manifestations” value is reported as “ameliorated these pathological CNS manifestations”. Further, the “outcome in spinal cord injuries” value with spinal cord injuries is “positive outcomes in patients”.

As for `CCCCCCCCCCCCC/C=C/C(O)C(COC1OC(CO)C(OC2OC(CO)C(OC3OC(CO)C(O)C(OC4OC(CO)C(O)C(O)C4O)C3NC(C)=O)C(OC3(C(=O)O)CC(O)C(NC(C)=O)C(C(O)C(O)CO)O3)C2O)C(O)C1O)NC(=O)C(Cl)Cl` (centres unmarked) [LIGA20], the “Parkinson's symptoms” value in series [1] was “reduce Parkinson's symptoms”.
